For data set [1] the following is noted: cited from earlier work.
The conditions of data set [2]: in vivo; cited from earlier work.
Data set [3] is classed as physicochemical. The conditions noted are these: for Purity by HPLC, high humidity (RH92.5%) / Purity by HPLC, high temperature (60° C.) / Purity by HPLC, light (4500 ± 500 Lux): hydrochloride.
Data set [4] can be described thus: Polymorph study: crystalline form A suspended and pulped in solvents, precipitate assayed by XRPD. The data set is classed as physicochemical. The conditions noted are these: for Crystalline form after suspension (XRPD): stirred 2 days at 40° C. in darkness. Here is the method:
(§1) XRPD (X-ray Powder Diffraction) Method 1: about 10 mg of a sample is uniformly laid on a single crystal silicon sample disc, and XRPD detection is performed using following parameters. Instrument model: X'Pert^3 X-ray diffractometer; target: Cu-Kα (40 mA, 45 kV); scanning range from 3° to 40° in the 2θ interval.
The solution was centrifuged to remove the precipitates, which were dried and assayed by XPRD as follows: […]

Data set [5] in a line: Mechanical stability of crystalline form A (XRPD after mechanical treatment). The data set is classed as physicochemical.
Data set [6] can be described thus: Accelerated stability test of crystalline form A (XRPD). It counts as physicochemical. The conditions noted are these: open, 40° C., RH75%, 3 months (sampled at 1, 2, 3 months). Here is the method:
as §1

These results are taken from patent US20240132536A1, “CRYSTAL FORM OF 3-HYDROXY-5-PREGNANE-20-ONE DERIVATIVE, AND PREPARATION METHOD THEREFOR AND USE THEREOF” (priority 2021, published 2024).

Molecules are shown by their SMILES. Like-named read-outs stand apart in the source and are kept apart here.

Turning to `CC(=O)[C@H]1CC[C@H]2[C@@H]3CC[C@H]4C[C@H](O)CC[C@]4(C)[C@H]3CC[C@]12C` [allopregnanolone], in data set [1], the “human plasma half-life period” value is “about 45 minutes”. Moreover, the oral availability entry in data set [2] is “poor”.
Regarding `CC(=O)[C@H]1CC[C@H]2[C@@H]3CC[C@H]4C[C@H](OC(=O)[C@@H](NC(=O)CN)C(C)C)CC[C@]4(C)[C@H]3CC[C@]12C.Cl` [crystalline form B, glycine-L-valine 3α-hydroxy-5α-pregnan-20-one ester hydrochloride], the “Purity by HPLC, high humidity (RH92.5%)” value amounted to 99.59% in data set [3] (day 0), 99.58% in data set [3] (day 5), 99.55% in data set [3] (day 10) and 99.56% in data set [3] (day 30). For the same molecule, the “Purity by HPLC, high temperature (60° C.)” value (shortened to “Purity by HPLC … (60° C.)”) in data set [3] (day 0) worked out at 99.59%; in data set [3] (day 5), 99.57%; in data set [3] (day 10), 99.54%; in data set [3] (day 30), 99.52%. Further, the “Purity by HPLC, light (4500 ± 500 Lux)” value in data set [3] (day 0) amounted to 99.59%; in data set [3] (day 5) it was 99.55%; in data set [3] (day 10), 99.53%; in data set [3] (day 30), 99.52%.
In the case of `CC(=O)[C@H]1CC[C@H]2[C@@H]3CC[C@H]4C[C@H](OC(=O)[C@@H](NC(=O)CN)C(C)C)CC[C@]4(C)[C@H]3CC[C@]12C.Cl` [crystalline form C, glycine-L-valine 3α-hydroxy-5α-pregnan-20-one ester hydrochloride], the “Purity by HPLC, high humidity (RH92.5%)” value in data set [3] (day 0) was 99.62%; in data set [3] (day 5), 99.58%; in data set [3] (day 10), 99.56%; in data set [3] (day 30) it was 99.53%. Further, the “Purity by HPLC … (60° C.)” value stood at 99.62% in data set [3] (day 0), 99.61% in data set [3] (day 5), 99.59% in data set [3] (day 10) and 99.60% in data set [3] (day 30). Also, the “Purity by HPLC, light (4500 ± 500 Lux)” value is listed as 99.62% in data set [3] (day 0), 99.60% in data set [3] (day 5), 99.59% in data set [3] (day 10) and 99.57% in data set [3] (day 30).
As for `CC(=O)[C@H]1CC[C@H]2[C@@H]3CC[C@H]4C[C@H](OC(=O)[C@@H](NC(=O)CN)C(C)C)CC[C@]4(C)[C@H]3CC[C@]12C.Cl` [crystalline form A, glycine-L-valine 3α-hydroxy-5α-pregnan-20-one ester hydrochloride], the “Crystalline form after suspension (XRPD)” value in data set [4] (Acetone), in data set [4] (Ethanol), in data set [4] (Ethyl acetate), in data set [4] (Methanol), in data set [4] (Methyl tert-butyl ether) and in data set [4] (Toluene) was “Crystalline form A” each time. For the same molecule, in data set [4] (n-Heptane), the “Crystalline form after suspension (XRPD)” value was “Crystalline form A”. Also, the “Stability in different solvent systems (conclusion)” value in data set [4] (seven solvents, 2 days at 40° C.) was “remains stable”. The “Effect of grinding, mechanical pulverising and pressure on stability (conclusion)” value in data set [5] is “no effects”. Besides, the “Crystalline form after mechanical treatment (XRPD)” value in data set [5] (Ground in an agate mortar for a few minutes), in data set [5] (pressed in a tablet press) and in data set [5] (pulverised in a mechanical shredder for a few minutes) was “Crystalline form A” in each case. Also, the “Purity by HPLC, high humidity (RH92.5%)” value in data set [3] (day 0), in data set [3] (day 5), in data set [3] (day 10) and in data set [3] (day 30) was 99.69% in each case. For the same molecule, the “Purity by HPLC … (60° C.)” value in data set [3] (day 0) was found to be 99.69%; in data set [3] (day 5), 99.62%; in data set [3] (day 10), 99.68%; in data set [3] (day 30), 99.69%. Further, the “Purity by HPLC, light (4500 ± 500 Lux)” value in data set [3] (day 0) is on record as 99.69%; in data set [3] (day 5) it was 99.66%; in data set [3] (day 10), 99.70%; in data set [3] (day 30) it was 99.67%. In data set [3] (up to 30 days), the “Stability under high temperature, high humidity and light conditions (conclusion)” value is “stable”. In data set [6], the “Change of crystalline form (XRPD) after accelerated stability test” value was “no change”.
